Measurements published in US20230019280A1, “SUBSTITUTED ISOINDOLONYL 2,2'-BIP[…], ANALOGUES THEREOF, AND METHODS USING SAME” (priority 2019, published 2023).
pEC50: −log10 of the molar value. Read-outs that look alike come from different tables or passages of the source.

Test system: HBsAg
Experiment: HBsAg assay (inhibition of HBsAg in HepG2.2.15 cells)
Type: cell-based, hepatitis B virus
Settings: supernatant HBsAg by CLIA at day 6 after exposure of compounds
Description: Inhibition of HBsAg was determined in HepG2.2.15 cells. Cells were maintained in culture medium containing 10% fetal calf serum, […], Glutamine, penicillin/streptomycin. Cells were seeded in 96-well collagen-coated plate at a density of 30,000 cells/well. Serially diluted compounds were added to cells next day at the final DMSO concentration of 0.5%. Cells were incubated with compounds for 2-3 days, after which medium was removed. Fresh medium containing compounds was added to cells for additional 3-4 days. At day 6 after exposure of compounds, supernatant was collected, the HBsAg immunoassay (microplate-based chemiluminescence immunoassay kits, CLIA, Autobio Diagnosics Co., Zhengzhou, China, Catalog #CL0310-2) was used to determine the level of HBsAg according to manufactory instruction. Dose-response curves were generated and the EC50 value (effective concentrations that achieved 50% inhibitory effect) were determined using XLfit software. In addition, cells were seeded at a density of 5,000 cells/well for determination of cell viability in the presence and absence of compounds by using CellTiter-Glo reagent (Promega).

[1] = read-out: sAg EC50, HepG2.2.15 cells
[2] = Hepatitis B virus, HepG2.2.15, 144 h, read-out: sAg EC50, HepG2.2.15 cells

Q: COc1cc2c(cc1OC)C(Cc1ccccc1)N(c1ccnc(-c3ncccn3)n1)C2=O (single isomer, unassigned) [Example 14, 2-([2,2′-Bipyrimidin]-4-yl)-3-benzyl-5,6-dimethoxyisoindolin-1-one] was tested. Which pEC50 [1] did it give?
A: Its pEC50 is 7.00.

Q: How did the pEC50 [1] turn out when CCC1c2cc(OC)c(C)cc2C(=O)N1c1ccnc(-c2ncccn2)n1 (single isomer, unassigned) [Example 5, 2-([2,2′-Bipyrimidin]-4-yl)-3-ethyl-5-methoxy-6-methylisoindolin-1-one] was run?
A: The pEC50 was 6.00.

Q: How did the pEC50 [1] turn out when COc1ccc(C2c3cc(OC)c(OC)cc3C(=O)N2c2ccnc(-c3ncccn3)n2)cc1 (single isomer, unassigned) [Example 10, 2-([2,2′-Bipyrimidin]-4-yl)-5,6-dimethoxy-3-(4-methoxyphenyl)isoindolin-1-one] was run?
A: The pEC50 was 7.89.

Q: How did the pEC50 [1] turn out when COc1cc2c(cc1OC)C(CC(C)C)N(c1ccnc(-c3ncccn3)n1)C2=O (single isomer, unassigned) [Example 40, 2-([2,2′-bipyrimidin]-4-yl)-3-isobutyl-5,6-dimethoxyisoindolin-1-one] was run?
A: The pEC50 was 8.00.

Q: COc1cc2c(cc1OC)C(CC(C)C)N(c1ccnc(-c3ncccn3)n1)C2=O (single isomer, unassigned) [Example 41, 2-([2,2′-Bipyrimidin]-4-yl)-3-isobutyl-5,6-dimethoxyisoindolin-1-one] was tested. Which pEC50 [1] did it give?
A: Its pEC50 is 6.00.

Q: With CCC1c2cc(OC)c(OC)cc2C(=O)N1c1ccnc(-c2ncccn2)c1 (single isomer, unassigned) [Example 34, 3-Ethyl-5,6-dimethoxy-2-(2-(pyrimidin-2-yl)pyridin-4-yl)isoindolin-1-one] as the compound, how does the pEC50 [1] read?
A: The pEC50 was 7.21.

Q: CCCC1c2cc(F)c(OC)cc2C(=O)N1c1nc(-c2ncccn2)ncc1F (single isomer, unassigned) [Example 58, 5-Fluoro-2-(5-fluoro-[2,2′-bipyrimidin]-4-yl)-6-methoxy-3-propylisoindolin-1-one] was tested. Which pEC50 [2] did it give?
A: The pEC50 was 7.70.

Q: With CCC1c2cc(OC)c(Cl)cc2C(=O)N1c1ccnc(-c2ncccn2)n1 (single isomer, unassigned) [Example 7, 2-([2,2′-Bipyrimidin]-4-yl)-6-chloro-3-ethyl-5-methoxyisoindolin-1-one] as the compound, how does the pEC50 [1] read?
A: Its pEC50 is 5.10.

Q: With COc1cc2c(cc1OC)C(c1ccccn1)N(c1ccnc(-c3ncccn3)n1)C2=O (single isomer, unassigned) [Example 22, 2-([2,2′-Bipyrimidin]-4-yl)-5,6-dimethoxy-3-(pyridin-2-yl)isoindolin-1-one] as the compound, how does the pEC50 [1] read?
A: Its pEC50 is 8.40.

Q: How did the pEC50 [2] turn out when O=C1c2cc(F)c(F)cc2CN1c1ccnc(-c2ncccn2)n1 [Example 61, 2-([2,2′-Bipyrimidin]-4-yl)-5,6-difluoroisoindolin-1-one] was run?
A: The pEC50 was 6.35.

Q: CCC1c2c(F)cc(Cl)cc2C(=O)N1c1ccnc(-c2ncccn2)n1 (single isomer, unassigned) [Example 8, 2-([2,2′-Bipyrimidin]-4-yl)-6-chloro-3-ethyl-4-fluoroisoindolin-1-one] was tested. Which pEC50 [1] did it give?
A: The pEC50 was 8.00.

Q: With COc1cc2c(cc1OC)C(c1sccc1C)N(c1ccnc(-c3ncccn3)n1)C2=O (stereo not drawn) [Example 27, 2-([2,2′-Bipyrimidin]-4-yl)-5,6-dimethoxy-3-(3-methylthiophen-2-yl)isoindo-lin-1-one] as the compound, how does the pEC50 [2] read?
A: The pEC50 was 9.00.

Q: COc1cccc(C2c3cc(OC)c(OC)cc3C(=O)N2c2ccnc(-c3ncccn3)n2)c1 (single isomer, unassigned) [Example 12, 2-([2,2′-Bipyrimidin]-4-yl)-5,6-dimethoxy-3-(3-methoxyphenyl)isoindolin-1-one] was tested. Which pEC50 [1] did it give?
A: Its pEC50 is 8.30.

Q: CCC1c2cc(OC)c(F)cc2C(=O)N1c1ccnc(-c2ncccn2)n1 (single isomer, unassigned) [Example 51, 2-([2,2′-Bipyrimidin]-4-yl)-3-ethyl-6-fluoro-5-methoxyisoindolin-1-one] was tested. Which pEC50 [1] did it give?
A: The pEC50 was 6.89.

Q: With CCC1c2cc(OC)c(OC)cc2C(=O)N1c1ccnc(-c2ncccn2)c1 (stereo not drawn) [Example 32, 3-Ethyl-5,6-dimethoxy-2-(2-(pyrimidin-2-yl)pyridin-4-yl)isoindolin-1-one] as the compound, how does the pEC50 [2] read?
A: Its pEC50 is 7.70.
